Test results taken from the supplement of paper PMC10307832.

Legend:
Experiment in all cases: relative viability (nuclei count vs DMSO), 5 days (fraction); higher = more cells survive
[1] = compound: Cc1ccc(C(=O)Nc2ccc(CN3CCN(C)CC3)c(C(F)(F)F)c2)cc1C#Cc1cnc2cccnn12 [Ponatinib] + N=C(N)NC(=N)NCCc1ccccc1 [Phenformin] (partner 250 µM)
Summary of the method: (§1)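 Relative viability was taken as the ratio of nuclei in treated wells to nuclei in vehicle wells. Lung cancer cell lines in 1536-well plates received compounds by pin tool one day after seeding, either one drug alone or a fixed anchor-drug dose plus five library-drug doses (not always all listed) in √10 steps. Nuclei were counted on 4× images after 5 days of treatment, and values are medians of duplicate plates.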

[2] = compound: Cc1ccc(Nc2nccc(N(C)c3ccc4c(C)n(C)nc4c3)n2)cc1S(N)(=O)=O [Pazopanib] + CS(=O)(=O)CCNCc1ccc(-c2ccc3ncnc(Nc4ccc(OCc5cccc(F)c5)c(Cl)c4)c3c2)o1 [Lapatinib] (partner 2 µM)
Summary of the method: as §1

[3] = compound: Cc1ccc(C(=O)Nc2ccc(CN3CCN(C)CC3)c(C(F)(F)F)c2)cc1C#Cc1cnc2cccnn12 [Ponatinib] + O=C(CCCCCCC(=O)Nc1ccccc1)NO [Vorinostat] (partner 1 µM)
Summary of the method: as §1

[4] = compound: Cc1ccc(Nc2nccc(N(C)c3ccc4c(C)n(C)nc4c3)n2)cc1S(N)(=O)=O [Pazopanib] + O=C(CCCCCCC(=O)Nc1ccccc1)NO [Vorinostat] (partner 1 µM)
Summary of the method: as §1

Cell Line	relative viability ([1]; first compound 0.002 µM)	relative viability ([1]; first compound 0.006325 µM)	relative viability ([1]; first compound 0.06325 µM)	relative viability ([1]; first compound 0.2 µM)	relative viability ([2]; first compound 0.01 µM)	relative viability ([2]; first compound 0.03162 µM)	relative viability ([2]; first compound 0.1 µM)	relative viability ([2]; first compound 0.3162 µM)	relative viability ([2]; first compound 1 µM)	relative viability ([3]; first compound 0.002 µM)	relative viability ([3]; first compound 0.006325 µM)	relative viability ([3]; first compound 0.06325 µM)	relative viability ([3]; first compound 0.2 µM)	relative viability ([4]; first compound 0.01 µM)	relative viability ([4]; first compound 0.03162 µM)	relative viability ([4]; first compound 0.1 µM)	relative viability ([4]; first compound 0.3162 µM)	relative viability ([4]; first compound 1 µM)
NCI-H1975	0.365	0.395	0.439	0.398	0.798	0.822	0.875	0.873	0.907	0.669	0.71	0.688	0.579	0.712	0.76	0.805	0.723	0.754
CAL-12T	0.529	0.541	0.668	0.601	0.483	0.669	0.69	0.733	0.816	0.958	0.666	0.864	0.876	0.742	0.649	0.744	0.754	0.834
NCI-H1623	0.567	0.606	0.611	0.627														
HCC-44	0.22	0.225	0.207	0.151	0.999	1.01	0.962	1.01	1.03	1.1	1.07	1.07	1.07	1.11	1.01	1.08	1.04	1.15
EKVX	0.231	0.25	0.234	0.249	0.183	0.213	0.231	0.344	0.297	0.762	0.822	0.927	0.826	0.674	0.731	0.79	0.742	0.604
NCI-H1651	0.301	0.373	0.299	0.265	0.76	0.876	0.885	0.857	1.12	0.507	0.579	0.602	0.601	0.536	0.588	0.621	0.534	0.637
NCI-H2170	0.391	0.365	0.432	0.419	0.242	0.264	0.293	0.316	0.269	0.679	0.808	0.843	0.781	0.624	0.848	0.877	0.796	0.829
NCI-H1703					1.09	0.629	0.41	0.354	0.286									
Calu-6					1.07	1.14	1.21	0.999	0.96									
EBC-1					0.184	0.251	0.232	0.247	0.232									
A-427	0.34	0.398	0.244	0.225	0.992	1.07	1	1.06	1.22	0.829	0.904	1.03	0.881	0.862	0.941	0.825	0.903	0.971
NCI-H2405	0.359	0.44	0.386	0.329	0.922	1.1	1.06	1.31	1.2	0.896	0.906	1.01	0.822	0.925	1.16	0.93	1.11	1.16
NCI-H1355	0.44	0.467	0.491	0.452		0.845	0.93	0.989	1.17	0.564	0.604	0.677	0.615	0.488	0.632	0.696	0.643	0.651
SK-MES-1	0.676	0.65	0.716	0.548	0.43	0.472	0.508	0.491	0.58	0.999	1.08	1.36	1.08	1.03	0.989	1.27	1.09	1.07
RERF-LC-KJ	0.41	0.417	0.482	0.426	0.761	0.758	0.815	0.734	0.799	0.601	0.767	0.881	0.635	0.63	0.79	0.622	0.601	0.596
NCI-H2228	0.356	0.356	0.342	0.357	1.32	1.15	0.979	1.08	0.929	0.658	0.588	0.7	0.575	1.12	1.01	0.706	0.59	0.619
HOP-62	0.602	0.635	0.633	0.624	1.04	1.01		0.99	1.04	0.516	0.509	0.682	0.597	0.494	0.584	0.474	0.656	0.496
HARA	0.446	0.437	0.44	0.388	0.582	0.746	0.58	0.725	0.695		0.491	0.548	0.46	0.475	0.424	0.605	0.438	0.605
PC-14	0.443	0.619	0.665	0.605	0.305	0.295	0.304	0.379	0.45	0.68	0.668	0.9	0.647	0.81	0.87	0.669	0.786	0.751
NCI-H1755	0.561	0.599	0.614	0.565	0.943	0.993	1.02	1.02	1.02	0.685	0.777	0.72	0.82	0.65	0.744	0.876	0.812	0.75
HCC-78	0.601	0.614	0.673	0.669	0.361	0.658	0.458	0.622	0.924	0.458	0.486	0.497	0.406		0.455	0.433	0.412	0.446
